Active and inactive are the calls of the source.
Experiments:
[1] = THP-1 cell cytotoxicity, cytotoxicity control, set 4 (AID 504911); assay type: functional; conditions: Mycobacterium tuberculosis
[2] = HepG2 cell cytotoxicity, cytotoxicity control, set 4 (AID 504910); assay type: functional; conditions: Mycobacterium tuberculosis
[3] = microbe, parasite or virus in culture; assay type: functional; conditions: Mycobacterium tuberculosis
[4] = Vero cell cytotoxicity, dose response, cytotoxicity control for M. tuberculosis growth inhibitor project, Vero cells, purified and synthesized compounds, set 4 (AID 504854); assay type: functional; conditions: Mycobacterium tuberculosis
[5] = A Cell Based Secondary Assay to Explore Cytotoxicity in HepG2 Cells of Compounds that Modulate Mycobacterium tuberculosis in Media Containing Glycerol versus Media without Glycerol (2).; assay type: functional
[6] = Vero cell cytotoxicity, dose response, cytotoxicity control for M. tuberculosis growth inhibitor project, Vero cells, purified and synthesized compounds, set 5 (AID 504909); assay type: functional; conditions: Mycobacterium tuberculosis
[7] = biological target: T1, Corticotropin-releasing factor receptor 2/Corticotropin-releasing factor-binding protein (Homo sapiens, UniProt P24387+Q13324); test: activators of CRF receptor 2 with binding protein – uHTS hits, confirmation (AID 602473); assay type: functional; conditions: read-out: EC50_Mean
T1 sequence (Q13324 whole entry): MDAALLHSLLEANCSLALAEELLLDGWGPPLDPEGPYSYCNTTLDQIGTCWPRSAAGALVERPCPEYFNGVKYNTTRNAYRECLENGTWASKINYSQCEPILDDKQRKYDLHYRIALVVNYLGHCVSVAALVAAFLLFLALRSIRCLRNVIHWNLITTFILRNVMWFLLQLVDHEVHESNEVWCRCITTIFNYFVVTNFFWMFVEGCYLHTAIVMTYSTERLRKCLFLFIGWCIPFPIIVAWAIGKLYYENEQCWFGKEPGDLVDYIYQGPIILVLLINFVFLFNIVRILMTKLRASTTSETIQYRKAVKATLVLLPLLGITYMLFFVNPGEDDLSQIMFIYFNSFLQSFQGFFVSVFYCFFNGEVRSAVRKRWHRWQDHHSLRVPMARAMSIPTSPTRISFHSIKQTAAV
T1 sequence (P24387 whole entry): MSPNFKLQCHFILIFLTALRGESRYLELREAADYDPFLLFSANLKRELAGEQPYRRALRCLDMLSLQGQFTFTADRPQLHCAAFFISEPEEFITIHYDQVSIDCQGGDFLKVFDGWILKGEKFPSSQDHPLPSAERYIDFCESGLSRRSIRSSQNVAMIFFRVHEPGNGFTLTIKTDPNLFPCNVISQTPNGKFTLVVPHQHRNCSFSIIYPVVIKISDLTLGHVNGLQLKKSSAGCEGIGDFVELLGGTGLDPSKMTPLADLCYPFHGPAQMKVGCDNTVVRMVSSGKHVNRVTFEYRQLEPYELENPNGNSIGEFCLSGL

[8] = biological target: T1, Corticotropin-releasing factor receptor 2/Corticotropin-releasing factor-binding protein; test: Dose Response confirmation of uHTS hits for small molecule antagonists of the CRF-binding protein and CRF-R2 receptor complex.; assay type: functional; conditions: read-out: IC50_Mean
[9] = THP-1 cell cytotoxicity, dose response, cytotoxicity control, set 3 (AID 504852); assay type: functional; conditions: Mycobacterium tuberculosis
[10] = A Cell Based Secondary Assay to Explore Cytotoxicity in THP-1 Cells of Compounds that Modulate Mycobacterium tuberculosis in Media Containing Glycerol versus Media without Glycerol (2).; assay type: functional
[11] = blockers of CRF-binding protein–CRF-R2 complex – cell-based, uHTS hits, 384-well, dose response (AID 651639); assay type: functional, Homo sapiens; conditions: read-out: IC50_Mean
[12] = HepG2 cell cytotoxicity, dose response, cytotoxicity control, set 3 (AID 504853); assay type: functional; conditions: Mycobacterium tuberculosis
[13] = Vero cell cytotoxicity, cytotoxicity control for M. tuberculosis inhibitor project, purified and synthesized samples, set 3 (AID 504684); assay type: functional
[14] = biological target: DNA dC->dU-editing enzyme APOBEC-3A (Homo sapiens, UniProt P31941); test: SAR analysis of small molecule inhibitors of APOBEC3A DNA Deaminase via a fluorescence-based single-stranded DNA deaminase assay - Set 2.; assay type: functional; conditions: read-out: IC50_Mean
Chain of DNA dC->dU-editing enzyme APOBEC-3A (P31941 whole entry): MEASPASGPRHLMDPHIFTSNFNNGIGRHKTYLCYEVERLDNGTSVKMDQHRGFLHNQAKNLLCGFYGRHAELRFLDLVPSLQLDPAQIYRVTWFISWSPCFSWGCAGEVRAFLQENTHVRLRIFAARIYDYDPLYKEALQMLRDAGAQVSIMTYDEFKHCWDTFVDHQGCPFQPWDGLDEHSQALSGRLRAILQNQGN

[15] = biological target: DNA dC->dU-editing enzyme APOBEC-3G (Homo sapiens, UniProt Q9HC16); test: SAR analysis of small molecule inhibitors of APOBEC3G DNA Deaminase via a fluorescence-based single-stranded DNA deaminase assay - Set 2.; assay type: functional; conditions: read-out: IC50_Mean
[16] = biological target: ALK tyrosine kinase receptor (Homo sapiens, UniProt Q9UM73); assay type: functional;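 note: ALK tested as one member of a kinase panel screen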
[17] = biological target: Receptor-type tyrosine-protein kinase FLT3 (Homo sapiens, UniProt P36888); assay type: functional;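 note: FLT3 was tested as one member of a kinome-wide kinase panel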
[18] = biological target: Fibroblast growth factor receptor 1 (Homo sapiens, UniProt P11362); assay type: functional
[19] = biological target: Dual specificity protein kinase CLK2 (Homo sapiens, UniProt P49760); assay type: functional
[20] = biological target: Mitogen-activated protein kinase kinase kinase kinase 4 (Homo sapiens, UniProt O95819); assay type: functional
[21] = biological target: Serine/threonine-protein kinase pim-1 (Homo sapiens, UniProt P11309); assay type: functional
[22] = biological target: Tyrosine-protein kinase BTK (Homo sapiens, UniProt Q06187); assay type: functional
[23] = biological target: Cyclin-dependent kinase 5 (Homo sapiens, UniProt Q00535); assay type: functional;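 note: CDK5 measured as one member of a kinase profiling panel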
Aurora kinase A = Aurora kinase A (Homo sapiens, UniProt O14965); assay type: functional;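 note: value from the Navigating the Kinome kinase panel profiling, panel entry STK6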
Activin receptor type-1 = Activin receptor type-1 (Homo sapiens, UniProt Q04771); test: Navigating the Kinome. Panel member name: ACVR1; assay type: functional
[24] = biological target: Macrophage colony-stimulating factor 1 receptor (Homo sapiens, UniProt P07333); assay type: functional;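 note: value comes from the Navigating the Kinome screening panel, CSF1R member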
[25] = biological target: Cyclin-dependent kinase 9 (Homo sapiens, UniProt P50750); assay type: functional;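 note: value from the CDK9 entry of a kinome-spanning kinase panel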
Chain of Cyclin-dependent kinase 9 (P50750 whole entry): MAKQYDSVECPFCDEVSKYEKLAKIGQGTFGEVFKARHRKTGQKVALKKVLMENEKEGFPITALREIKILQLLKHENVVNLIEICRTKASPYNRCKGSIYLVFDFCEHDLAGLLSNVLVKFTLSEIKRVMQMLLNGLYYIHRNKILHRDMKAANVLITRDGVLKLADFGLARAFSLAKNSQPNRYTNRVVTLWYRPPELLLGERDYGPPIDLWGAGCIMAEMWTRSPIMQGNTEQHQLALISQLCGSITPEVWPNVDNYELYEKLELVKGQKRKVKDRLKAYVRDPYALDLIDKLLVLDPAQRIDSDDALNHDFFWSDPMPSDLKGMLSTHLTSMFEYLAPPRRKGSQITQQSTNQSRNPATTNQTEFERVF

[26] = biological target: Platelet-derived growth factor receptor alpha (Homo sapiens, UniProt P16234); test: Navigating the Kinome. Panel member name: PDGFRA; assay type: functional
[27] = biological target: High affinity nerve growth factor receptor (Homo sapiens, UniProt P04629); assay type: functional;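 note: NTRK1 tested as one member of a kinome-wide profiling panel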
[28] = biological target: Proto-oncogene tyrosine-protein kinase receptor Ret (Homo sapiens, UniProt P07949); assay type: functional;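 note: measured within a kinome-wide profiling panel, RET as the panel member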
Chain of Proto-oncogene tyrosine-protein kinase receptor Ret (P07949 whole entry): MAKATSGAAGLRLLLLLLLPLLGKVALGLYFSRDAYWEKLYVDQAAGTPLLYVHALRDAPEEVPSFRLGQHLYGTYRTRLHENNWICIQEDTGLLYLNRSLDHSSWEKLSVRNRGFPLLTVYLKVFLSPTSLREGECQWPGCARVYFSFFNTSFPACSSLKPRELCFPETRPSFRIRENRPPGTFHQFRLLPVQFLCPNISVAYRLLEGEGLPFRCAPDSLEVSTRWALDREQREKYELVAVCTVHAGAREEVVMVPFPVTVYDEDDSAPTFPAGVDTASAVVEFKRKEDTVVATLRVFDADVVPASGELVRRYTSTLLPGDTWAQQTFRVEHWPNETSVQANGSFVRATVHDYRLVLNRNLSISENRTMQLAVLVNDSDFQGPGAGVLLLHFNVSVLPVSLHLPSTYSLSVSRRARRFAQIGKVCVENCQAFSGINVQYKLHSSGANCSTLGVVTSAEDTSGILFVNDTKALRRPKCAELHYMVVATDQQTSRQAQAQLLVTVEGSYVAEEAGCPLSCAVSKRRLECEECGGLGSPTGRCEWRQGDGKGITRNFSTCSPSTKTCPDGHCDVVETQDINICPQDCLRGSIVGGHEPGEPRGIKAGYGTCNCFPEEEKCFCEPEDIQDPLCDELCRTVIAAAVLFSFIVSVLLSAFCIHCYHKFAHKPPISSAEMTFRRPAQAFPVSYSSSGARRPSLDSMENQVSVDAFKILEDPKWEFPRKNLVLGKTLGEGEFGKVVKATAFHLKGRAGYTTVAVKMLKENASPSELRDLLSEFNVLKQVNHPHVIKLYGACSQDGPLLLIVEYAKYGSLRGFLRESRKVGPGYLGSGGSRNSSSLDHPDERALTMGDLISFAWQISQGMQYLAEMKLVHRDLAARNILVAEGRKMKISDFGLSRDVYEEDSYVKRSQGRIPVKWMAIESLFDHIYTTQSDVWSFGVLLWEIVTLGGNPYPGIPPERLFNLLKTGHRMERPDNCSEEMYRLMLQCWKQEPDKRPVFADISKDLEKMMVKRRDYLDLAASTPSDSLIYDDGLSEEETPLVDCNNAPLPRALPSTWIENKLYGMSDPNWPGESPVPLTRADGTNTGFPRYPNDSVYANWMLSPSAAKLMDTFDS

[29] = biological target: Mitogen-activated protein kinase kinase kinase kinase 5 (Homo sapiens, UniProt Q9Y4K4); assay type: functional;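 note: measured as one member of a kinome-spanning kinase panel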
[30] = biological target: Tyrosine-protein kinase JAK2 (Homo sapiens, UniProt O60674); assay type: functional;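 note: JAK2 tested as one member of a kinase panel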
[31] = biological target: Dual specificity tyrosine-phosphorylation-regulated kinase 1B (Homo sapiens, UniProt Q9Y463); test: Navigating the Kinome. Panel member name: DYRK1B; assay type: functional
[32] = biological target: Mitogen-activated protein kinase 8 (Homo sapiens, UniProt P45983); assay type: functional;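 note: value comes from one member of a kinome-wide kinase profiling panel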
[33] = biological target: cAMP-dependent protein kinase catalytic subunit PRKX (Homo sapiens, UniProt P51817); assay type: functional
[34] = biological target: BDNF/NT-3 growth factors receptor (Homo sapiens, UniProt Q16620); assay type: functional;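 note: NTRK2 measured as one member of a broad kinome-wide kinase profiling panel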
[35] = biological target: Dual specificity mitogen-activated protein kinase kinase 1 (Homo sapiens, UniProt Q02750); test: Navigating the Kinome. Panel member name: MAP2K1; assay type: functional
[36] = biological target: Cyclin-dependent kinase 19 (Homo sapiens, UniProt Q9BWU1); test: Navigating the Kinome. Panel member name: CDC2L6; assay type: functional
[37] = biological target: Death-associated protein kinase 3 (Homo sapiens, UniProt O43293); assay type: functional;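 note: measured as one member of a kinome-wide profiling panel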
[38] = biological target: Serine/threonine-protein kinase N2 (Homo sapiens, UniProt Q16513); assay type: functional
[39] = biological target: Inhibitor of nuclear factor kappa-B kinase subunit epsilon (Homo sapiens, UniProt Q14164); test: Navigating the Kinome. Panel member name: IKBKE; assay type: functional
[40] = biological target: Glycogen synthase kinase-3 alpha (Homo sapiens, UniProt P49840); assay type: functional;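 note: GSK3A result taken from a broad kinome-wide kinase panel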
[41] = biological target: Tyrosine-protein kinase Lck (Homo sapiens, UniProt P06239); assay type: functional;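 note: lck was assayed as one member of a kinase panel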
[42] = biological target: Macrophage-stimulating protein receptor (Homo sapiens, UniProt Q04912); test: Navigating the Kinome. Panel member name: MST1R; assay type: functional
[43] = biological target: Cyclin-dependent kinase 8 (Homo sapiens, UniProt P49336); test: Navigating the Kinome. Panel member name: CDK8; assay type: functional
[44] = biological target: Vascular endothelial growth factor receptor 1 (Homo sapiens, UniProt P17948); assay type: functional;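 note: measured within a kinome-wide profiling panel, FLT1 as the panel member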
Chain of Vascular endothelial growth factor receptor 1 (P17948 whole entry): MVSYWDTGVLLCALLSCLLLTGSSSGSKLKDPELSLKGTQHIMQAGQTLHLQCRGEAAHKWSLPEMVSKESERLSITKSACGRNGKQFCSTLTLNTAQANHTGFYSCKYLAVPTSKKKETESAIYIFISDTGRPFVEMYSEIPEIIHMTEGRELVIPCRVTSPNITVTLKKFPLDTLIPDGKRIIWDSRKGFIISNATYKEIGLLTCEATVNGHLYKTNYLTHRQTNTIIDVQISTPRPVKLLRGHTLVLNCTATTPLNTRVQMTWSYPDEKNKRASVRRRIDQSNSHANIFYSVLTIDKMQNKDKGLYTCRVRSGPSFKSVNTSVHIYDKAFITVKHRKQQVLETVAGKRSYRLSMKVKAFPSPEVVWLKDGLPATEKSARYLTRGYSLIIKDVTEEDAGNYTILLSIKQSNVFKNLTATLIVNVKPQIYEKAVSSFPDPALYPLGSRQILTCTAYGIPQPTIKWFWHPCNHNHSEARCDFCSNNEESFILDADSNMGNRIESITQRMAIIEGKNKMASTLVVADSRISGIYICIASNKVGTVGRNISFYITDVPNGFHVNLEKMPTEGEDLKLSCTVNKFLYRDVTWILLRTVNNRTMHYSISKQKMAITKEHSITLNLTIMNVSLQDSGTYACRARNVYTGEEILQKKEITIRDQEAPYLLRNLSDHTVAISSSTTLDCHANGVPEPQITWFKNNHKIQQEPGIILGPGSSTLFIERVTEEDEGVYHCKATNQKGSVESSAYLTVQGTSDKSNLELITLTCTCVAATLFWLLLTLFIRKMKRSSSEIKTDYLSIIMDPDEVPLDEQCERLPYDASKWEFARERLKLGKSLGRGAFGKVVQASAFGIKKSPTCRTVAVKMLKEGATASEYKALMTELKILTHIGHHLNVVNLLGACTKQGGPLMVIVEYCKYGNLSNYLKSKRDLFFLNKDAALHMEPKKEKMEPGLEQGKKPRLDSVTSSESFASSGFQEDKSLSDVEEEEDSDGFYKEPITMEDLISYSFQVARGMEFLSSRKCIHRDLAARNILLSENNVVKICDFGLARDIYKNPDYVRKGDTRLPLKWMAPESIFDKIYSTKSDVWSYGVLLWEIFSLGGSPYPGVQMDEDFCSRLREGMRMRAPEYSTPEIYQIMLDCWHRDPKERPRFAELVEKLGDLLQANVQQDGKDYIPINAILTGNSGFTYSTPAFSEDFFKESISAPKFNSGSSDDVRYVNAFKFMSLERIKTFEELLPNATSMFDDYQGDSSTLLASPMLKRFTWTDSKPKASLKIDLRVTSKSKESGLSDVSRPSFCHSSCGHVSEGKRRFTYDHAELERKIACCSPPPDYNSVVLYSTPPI

[45] = biological target: Serine/threonine-protein kinase TAO1 (Homo sapiens, UniProt Q7L7X3); assay type: functional
Activated CDC42 kinase 1 = Activated CDC42 kinase 1 (Homo sapiens, UniProt Q07912); test: Navigating the Kinome. Panel member name: ACK1; assay type: functional
[46] = biological target: Mitogen-activated protein kinase 9 (Homo sapiens, UniProt P45984); assay type: functional;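 note: value from a kinome panel profiling assay, MAPK9 panel entry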
[47] = biological target: Serine/threonine-protein kinase TBK1 (Homo sapiens, UniProt Q9UHD2); test: Navigating the Kinome. Panel member name: TBK1; assay type: functional
[48] = biological target: G protein-coupled receptor kinase 5 (Homo sapiens, UniProt P34947); test: Navigating the Kinome. Panel member name: GPRK5; assay type: functional
[49] = biological target: cAMP-dependent protein kinase catalytic subunit alpha (Homo sapiens, UniProt P17612); assay type: functional
[50] = biological target: Glycogen synthase kinase-3 beta (Homo sapiens, UniProt P49841); assay type: functional;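 note: value comes from a broad kinome profiling panel, with GSK3B as the panel member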
[51] = biological target: Tyrosine-protein kinase ABL1 (Homo sapiens, UniProt P00519); assay type: functional
Chain of Tyrosine-protein kinase ABL1 (P00519 whole entry): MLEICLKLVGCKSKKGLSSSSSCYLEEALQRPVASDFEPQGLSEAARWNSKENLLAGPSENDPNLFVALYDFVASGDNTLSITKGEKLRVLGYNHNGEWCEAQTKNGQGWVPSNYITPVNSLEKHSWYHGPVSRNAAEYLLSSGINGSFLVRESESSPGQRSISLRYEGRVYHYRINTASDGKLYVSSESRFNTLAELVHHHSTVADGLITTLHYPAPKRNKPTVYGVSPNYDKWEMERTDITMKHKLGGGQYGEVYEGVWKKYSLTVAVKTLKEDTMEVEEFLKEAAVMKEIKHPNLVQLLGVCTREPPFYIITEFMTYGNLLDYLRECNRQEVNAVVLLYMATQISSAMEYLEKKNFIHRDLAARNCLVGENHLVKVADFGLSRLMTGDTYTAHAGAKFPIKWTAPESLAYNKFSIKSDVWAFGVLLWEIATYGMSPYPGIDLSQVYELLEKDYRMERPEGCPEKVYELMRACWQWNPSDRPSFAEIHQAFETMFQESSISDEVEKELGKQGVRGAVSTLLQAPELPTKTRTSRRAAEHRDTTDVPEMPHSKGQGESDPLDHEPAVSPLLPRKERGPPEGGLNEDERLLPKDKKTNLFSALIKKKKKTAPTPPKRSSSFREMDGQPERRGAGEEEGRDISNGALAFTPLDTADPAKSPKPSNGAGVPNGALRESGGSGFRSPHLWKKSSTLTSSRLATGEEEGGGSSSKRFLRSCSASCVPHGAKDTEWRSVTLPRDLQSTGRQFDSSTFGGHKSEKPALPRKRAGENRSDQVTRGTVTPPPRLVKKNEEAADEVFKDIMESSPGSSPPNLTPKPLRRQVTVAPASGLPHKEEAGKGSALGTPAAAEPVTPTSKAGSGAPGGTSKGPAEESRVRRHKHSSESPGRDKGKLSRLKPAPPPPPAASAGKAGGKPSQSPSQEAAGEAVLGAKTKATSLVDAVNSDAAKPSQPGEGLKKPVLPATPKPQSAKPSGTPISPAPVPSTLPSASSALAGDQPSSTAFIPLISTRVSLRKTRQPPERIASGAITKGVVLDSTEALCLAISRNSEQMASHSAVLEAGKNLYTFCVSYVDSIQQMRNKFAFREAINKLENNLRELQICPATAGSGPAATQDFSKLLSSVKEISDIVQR

[52] = biological target: Insulin-like growth factor 1 receptor (Homo sapiens, UniProt P08069); test: Navigating the Kinome. Panel member name: IGF1R; assay type: functional
[53] = biological target: Dual specificity tyrosine-phosphorylation-regulated kinase 1A (Homo sapiens, UniProt Q13627); assay type: functional;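 note: measured against DYRK1A as one member of a broad kinome profiling panel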
[54] = biological target: Dual specificity protein kinase CLK4 (Homo sapiens, UniProt Q9HAZ1); assay type: functional
[55] = biological target: Protein kinase C theta type (Homo sapiens, UniProt Q04759); test: Navigating the Kinome. Panel member name: PRKCQ; assay type: functional
[56] = biological target: Mast/stem cell growth factor receptor Kit (Homo sapiens, UniProt P10721); assay type: functional;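 note: KIT entry within a kinase panel assay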
[57] = biological target: Serine/threonine-protein kinase D3 (Homo sapiens, UniProt O94806); assay type: functional;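 note: determined within a kinase panel screen, with PRKCN as the panel member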
[58] = biological target: Mitogen-activated protein kinase kinase kinase kinase 2 (Homo sapiens, UniProt Q12851); assay type: functional;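 note: measured as one member of a kinome-wide kinase panel, with MAP4K2 as the panel entry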
[59] = biological target: Tyrosine-protein kinase Fyn (Homo sapiens, UniProt P06241); assay type: functional
[60] = biological target: Tyrosine-protein kinase JAK3 (Homo sapiens, UniProt P52333); assay type: functional
[61] = biological target: Mitogen-activated protein kinase 14 (Homo sapiens, UniProt Q16539); assay type: functional;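 note: part of a kinome-wide panel, MAPK14 entry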
[62] = biological target: Dual specificity mitogen-activated protein kinase kinase 2 (Homo sapiens, UniProt P36507); test: Navigating the Kinome. Panel member name: MAP2K2; assay type: functional
[63] = biological target: Vascular endothelial growth factor receptor 2 (Homo sapiens, UniProt P35968); assay type: functional
[64] = biological target: 5'-AMP-activated protein kinase catalytic subunit alpha-1 (Homo sapiens, UniProt Q13131); assay type: functional
[65] = biological target: Leucine-rich repeat serine/threonine-protein kinase 2 (Homo sapiens, UniProt Q5S007); assay type: functional;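 note: value from a broad kinome-wide panel profiling study in which LRRK2 was one of the kinases tested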
[66] = biological target: Calcium/calmodulin-dependent protein kinase type II subunit alpha (Homo sapiens, UniProt Q9UQM7); test: Navigating the Kinome. Panel member name: CAMK2A; assay type: functional
[67] = biological target: Leukocyte tyrosine kinase receptor (Homo sapiens, UniProt P29376); test: Navigating the Kinome. Panel member name: LTK; assay type: functional
[68] = biological target: Tyrosine-protein kinase receptor TYRO3 (Homo sapiens, UniProt Q06418); assay type: functional;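 note: TYRO3 value obtained as one member of a kinome-wide profiling panel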
Chain of Tyrosine-protein kinase receptor TYRO3 (Q06418 whole entry): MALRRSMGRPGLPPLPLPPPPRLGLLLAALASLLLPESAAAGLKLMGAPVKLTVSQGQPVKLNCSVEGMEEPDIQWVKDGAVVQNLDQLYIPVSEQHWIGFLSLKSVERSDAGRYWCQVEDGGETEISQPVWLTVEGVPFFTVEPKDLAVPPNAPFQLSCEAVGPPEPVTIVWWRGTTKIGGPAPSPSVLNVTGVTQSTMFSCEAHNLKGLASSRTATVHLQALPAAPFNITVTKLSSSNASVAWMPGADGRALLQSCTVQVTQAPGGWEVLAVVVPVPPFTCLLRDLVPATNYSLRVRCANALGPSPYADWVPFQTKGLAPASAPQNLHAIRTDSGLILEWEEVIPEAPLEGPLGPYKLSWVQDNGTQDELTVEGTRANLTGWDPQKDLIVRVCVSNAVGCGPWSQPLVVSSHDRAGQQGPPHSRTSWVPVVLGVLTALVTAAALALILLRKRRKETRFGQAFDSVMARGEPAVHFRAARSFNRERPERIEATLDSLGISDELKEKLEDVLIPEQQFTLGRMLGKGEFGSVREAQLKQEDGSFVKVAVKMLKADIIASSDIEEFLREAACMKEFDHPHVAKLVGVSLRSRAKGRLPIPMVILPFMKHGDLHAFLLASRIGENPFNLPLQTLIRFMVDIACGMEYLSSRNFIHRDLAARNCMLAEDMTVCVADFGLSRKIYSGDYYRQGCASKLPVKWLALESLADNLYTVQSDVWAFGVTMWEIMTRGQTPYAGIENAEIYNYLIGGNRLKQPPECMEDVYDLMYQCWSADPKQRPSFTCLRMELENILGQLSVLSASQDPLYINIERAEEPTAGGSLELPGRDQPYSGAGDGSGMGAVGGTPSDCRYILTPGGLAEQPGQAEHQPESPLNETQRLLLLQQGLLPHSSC

Cc1ccc(C(=O)N/N=C(/CC(=O)c2cccs2)C(F)(F)F)cc1
inactive: EC50 [7] > 53 µM
active: CC50 [1] 46.3 µM | CC50 [2] 38.8 µM | CC50 [3] 28.2 µM | CC50 [4] 55 µM | CC50 [5] 35 µM | CC50 [6] 34.4 µM | IC50 [8] 4.48 µM | CC50 [9] 51.4 µM | CC50 [10] 89.8 µM | IC50 [11] 16 µM | CC50 [12] > 50 µM | CC50 [13] 61.7 µM

O=C(NCc1ccccc1)c1cc2ncc(Br)cn2n1
inactive: IC50 [14] > 99 µM | IC50 [15] > 99 µM

COc1cc2ncc3c(N)nc4c(C)c(N)ccc4c3c2cc1OC
active: Ki [37] 3.98 µM | Ki [44] 3.16 µM | Ki [57] 0.158 µM | Ki [65] 0.0631 µM
inactive: Ki [16] > 6.31 µM | Ki [17] > 3.16 µM | Ki [18] > 3.98 µM | Ki [19] > 3.98 µM | Ki [20] > 5.01 µM | Ki [21] > 6.31 µM | Ki [22] > 6.31 µM | Ki [23] > 3.16 µM | Ki (Aurora kinase A) > 1.58 µM | Ki (Activin receptor type-1) > 3.98 µM | Ki [24] > 2.51 µM | Ki [25] > 1.58 µM | Ki [26] > 2.51 µM | Ki [27] > 3.16 µM | Ki [28] > 3.16 µM | Ki [29] > 3.98 µM | Ki [30] > 2.51 µM | Ki [31] > 2.51 µM | Ki [32] > 5.01 µM | Ki [33] > 3.16 µM | Ki [34] > 3.98 µM | Ki [35] > 3.16 µM | Ki [36] > 100 µM | Ki [38] > 5.01 µM | Ki [39] > 3.16 µM | Ki [40] > 3.98 µM | Ki [41] > 6.31 µM | Ki [42] > 3.98 µM | Ki [43] > 3.98 µM | Ki [45] > 6.31 µM | Ki (Activated CDC42 kinase 1) > 3.98 µM | Ki [46] > 3.98 µM | Ki [47] > 3.16 µM | Ki [48] > 3.98 µM | Ki [49] > 1.26 µM | Ki [50] > 3.98 µM | Ki [51] > 3.98 µM | Ki [52] > 2.51 µM | Ki [53] > 2 µM | Ki [54] > 2.51 µM | Ki [55] > 2.51 µM | Ki [56] > 3.98 µM | Ki [58] > 2.51 µM | Ki [59] > 6.31 µM | Ki [60] > 5.01 µM | Ki [61] > 3.98 µM | Ki [62] > 3.98 µM | Ki [63] > 2.51 µM | Ki [64] > 3.16 µM | Ki [66] > 7.94 µM | Ki [67] > 2.51 µM | Ki [68] > 3.16 µM

Reference: ChEMBL document CHEMBL1201862, “PubChem BioAssay data set” (2004)
